Experimental data reported in patent US11254652B2, “Crystalline forms of N-(4-(4-(cyclopropymethyl)piperazine-1-carbonyl)phenyl)quinoline-8-sulfonamide” (Agios Pharmaceuticals, Inc., priority 2017, dated 2022).

Key:
Assay type in all cases: physicochemical
[1] = Stability study of Form A under temperature/RH storage
[2] = Solubility in water and simulated fluids at 37° C. (slurry, HPLC; XRPD of residual solid); conditions: values based on hemi-sulfate sesqui-hydrate salt; for solubility at 1 h / solubility at 2 days: 37 °C, thermodynamic from solid; for solubility at 1 h: slurry time 1 hr
Method: Solubility of Patterns A, B and D were measured in water. The solids were slurried in the fluids for two days and at 37° C. The supernatant was syringe filtered and used for HPLC analysis. For Patterns A and D the solubility measurement was repeated and the sample was taken after 1 hr slurry. A calibration curve was developed using Pattern A. This was not assay corrected and therefore the solubility values are based on the hemi-sulfate, sesqui-hydrate salt.
Both Patterns B and D converted to Pattern A after two days slurry. Pattern D also converted to Pattern A within 1 hour slurry in Fasted state simulated gastric fluid (FaSSGF) or water. […] This could be because of the conversion of Patterns B and D to Pattern A. The solubility data and the resulting XRPD Pattern after the measurement are reported in Table 21.

[3] = Solubility measurements by gravimetric method in solvents at 23° C. and 50° C.; conditions: for solubility at 2 days: organic solvent or mixture, thermodynamic from solid, read-out: Solubility
Method: Solubility measurements were done by gravimetric method in 20 different solvents at two temperatures (23° C. and 50° C.). About 20-30 mg of Form A, the synthesis of which is described below, was weighed and 0.75 mL solvent was added to form a slurry. The slurry was then stirred for two days at the specified temperature. The vial was centrifuged and the supernatant was collected for solubility measurement through gravimetric method. The saturated supernatant was transferred into pre-weighed 2 mL HPLC vials and weighed again (vial+liquid). The uncapped vial was then left on a 50° C. hot plate to slowly evaporate the solvent overnight. The vials were then left in the oven at 50° C. and under vacuum to remove the residual solvent so that only the dissolved solid remained. The vial was then weighed (vial+solid). From these three weights; vial, vial+liquid and vial+solid; the weight of dissolved solid and the solvent were calculated. Then using solvent density the solubility was calculated as mg solid/mL of solvent.
20-30 mg of Form A was weighed into 2 mL vial and 500 μL MeOH solvent system as outlined in the table was added. If dissolved, more solids were added to form the slurry. The slurries were then stirred for two days. The vials were centrifuged and the supernatant was collected for solubility measurement through gravimetric method by evaporation at 50° C. XRPD analysis was conducted on the solid after filtration of the slurries.
For the sake of comparison, the solubility of Compound 1, i.e., the non-crystalline freebase, was also measured in two solvent systems to see the effect of water.

O=C(c1ccc(NS(=O)(=O)c2cccc3cccnc23)cc1)N1CCN(CC2CC2)CC1 [Form A, 1-(cyclopropylmethyl)-4-(4-(quinoline-8-sulfonamido)benzoyl)piperazin-1-ium hemisulfate sesquihydrate]
degradation in stability study ([1]; one month under 40±2° C./75±5% RH): No degradation | degradation in stability study ([1]; three months at 30±2° C./65±5% RH): No degradation | degradation in stability study ([1]; three months under 25±2° C./60±5% RH): No degradation | degradation in stability study ([1]; three months under 40±2° C./75% RH): No degradation | degradation in stability study ([1]; twelve months under 25±2° C./60±5% RH): No degradation | solubility at 1 h ([2]; FaSSGF, fassgf or other biorelevant): 7070 µg/mL | solubility at 2 days ([2]; FaSSGF, fassgf or other biorelevant, slurry time 2 days): 6800 µg/mL | Solubility ([2]; FaSSIF, slurry time 2 days, hemisulfate sesquihydrate): 0.24 mg Solid/mL solvent | solubility at 1 h ([2]; water): 3050 µg/mL | solubility at 2 days ([2]; water, slurry time 2 days): 2690 µg/mL | solubility at 2 days ([3]; DCM, 23 °C, DCM, 23° C.): 2000 µg/mL | Solubility ([3]; EtOAc, 23° C.): 0 mg solid/mL solvent | solubility at 2 days ([3]; EtOAc, 50 °C, EtOAc, 50° C.): 2000 µg/mL | solubility at 2 days ([3]; EtOAc:MeOH (1:1) and 5 vol % water, 23 °C, EtOAc:MeOH (1:1) and 5 vol % water, 23° C.): 3000 µg/mL | solubility at 2 days ([3]; EtOAc:MeOH (1:1) and 5 vol % water, 50 °C, EtOAc:MeOH (1:1) and 5 vol % water, 50° C.): 12000 µg/mL | solubility at 2 days ([3]; EtOAc:MeOH (1:1), 23 °C, EtOAc:MeOH (1:1), 23° C.): 21000 µg/mL | solubility at 2 days ([3]; EtOAc:MeOH (1:1), 50 °C, EtOAc:MeOH (1:1), 50° C.): 240000 µg/mL | solubility at 2 days ([3]; EtOAc:MeOH (1:9), 23 °C, EtOAc:MeOH (1:9), 23° C.): 359000 µg/mL | solubility at 2 days ([3]; EtOAc:MeOH (1:9), 50 °C, EtOAc:MeOH (1:9), 50° C.): 531000 µg/mL | Solubility ([3]; EtOAc:MeOH (9:1), 23° C.): 0 mg solid/mL solvent | solubility at 2 days ([3]; EtOAc:MeOH (9:1), 50 °C, EtOAc:MeOH (9:1), 50° C.): 9000 µg/mL | Solubility ([3]; EtOH, 23° C.): 0 mg solid/mL solvent | solubility at 2 days ([3]; EtOH, 50 °C, EtOH, 50° C.): 1000 µg/mL | solubility at 2 days ([3]; EtOH:MeOH (1:1), 23 °C, EtOH:MeOH (1:1), 23° C.): 2000 µg/mL | solubility at 2 days ([3]; EtOH:MeOH (1:1), 50 °C, EtOH:MeOH (1:1), 50° C.): 11000 µg/mL | Solubility ([3]; IPA, 23° C.): 0 mg solid/mL solvent | solubility at 2 days ([3]; IPA, 50 °C, IPA, 50° C.): 2000 µg/mL | solubility at 2 days ([3]; IPA:DMSO (8:2), 23 °C, IPA:DMSO (8:2), 23° C.): 11000 µg/mL | solubility at 2 days ([3]; IPA:DMSO (8:2), 50 °C, IPA:DMSO (8:2), 50° C.): 28000 µg/mL | solubility at 2 days ([3]; IPA:DMSO:water (70:20:10), 23 °C, IPA:DMSO:water (70:20:10), 23° C.): 1000 µg/mL | solubility at 2 days ([3]; IPA:DMSO:water (70:20:10), 50 °C, IPA:DMSO:water (70:20:10), 50° C.): 8000 µg/mL | solubility at 2 days ([3]; IPA:DMSO:water (70:25:5), 23 °C, IPA:DMSO:water (70:25:5), 23° C.): 2000 µg/mL | solubility at 2 days ([3]; IPA:DMSO:water (70:25:5), 50 °C, IPA:DMSO:water (70:25:5), 50° C.): 9000 µg/mL | solubility at 2 days ([3]; IPA:DMSO:water (80:18:2), 23 °C, IPA:DMSO:water (80:18:2), 23° C.): 1000 µg/mL | solubility at 2 days ([3]; IPA:DMSO:water (80:18:2), 50 °C, IPA:DMSO:water (80:18:2), 50° C.): 6000 µg/mL | Solubility ([3]; IPAc, 23° C.): 0 mg solid/mL solvent | solubility at 2 days ([3]; IPAc, 50 °C, IPAc, 50° C.): 1000 µg/mL | Solubility ([3]; MEK:water (20:1), 23° C.): 0 mg solid/mL solvent
